Reference: US8569487B2, “Pyridazine compound and use thereof” (priority 2006, dated 2013)
Read-outs that look alike come from different tables or passages of the source.

Experiments:
MT4 cells = test: Cytotoxicity, CellTiter-Glo Luminescence Cell Viability assay, MT4; type: cell-based
MH4 cells = test: Cytotoxicity, CellTiter-Glo Luminescence Cell Viability assay, MH4; type: cell-based; conditions: HCV replicon-containing cell line
[1] = system: HCV genotype 1a (H77/neo) replicon; test: HCV genotype 1a (H77/neo) replicon, quantitative real-time PCR assay; type: cell-based; conditions: 3 days, absence of HSA
Method: (§1) HCV genotype 1b (Con-1/lucneo) and 1a (H77/neo) replicon cells were incubated with serial dilutions of compound (1) 2′C-methyl adenosine (2′CMeA) or IFNα for 3 days in the absence or presence of 40 mg/mL human serum albumin (HSA).

[2] = system: HCV genotype 2a subgenomic replicon; test: HCV genotype 2a subgenomic replicon in Huh-7 cells, NS3 protease activity readout; type: cell-based
Method: (§2) The antiviral activity of compound (1) against HCV genotype 2a was tested in cells chronically infected with the genotype 2a virus as well as in cells replicating a subgenomic 2a replicon. Huh-7 cells containing chronically replicating HCV genotype 2a (J6/JFH-Rluc) virus or subgenomic replicons were cultured with compound (1) or 2′CMeA for 3 days in the absence of human serum albumin. After cultivation, the amount of luciferase in 2a-virus containing cells and HCV NS3 protease activity in the 2a replicon-containing cells was determined using Promega's luciferase assay and a novel time-resolved fluorescence assay, respectively.

Huh-7 lucneo cells = test: Cytotoxicity, CellTiter-Glo Luminescence Cell Viability assay, Huh-7 lucneo; type: cell-based
SL3 cells = test: Cytotoxicity, CellTiter-Glo Luminescence Cell Viability assay, SL3; type: cell-based; conditions: HCV replicon-containing cell line
[3] = system: HCV genotype 1b (Con-1/lucneo) replicon; type: cell-based
Method: as §1

HepG2 cells = test: Cytotoxicity, CellTiter-Glo Luminescence Cell Viability assay, HepG2; type: cell-based
[4] = system: HCV genotype 2a (J6/JFH-Rluc) virus; test: Huh-7 cells chronically infected with HCV genotype 2a (J6/JFH-Rluc) virus, luciferase assay; type: cell-based; conditions: 3 days, absence of HSA
Method: as §2

[5] = Phase-1 first-in-human trial, pharmacokinetics; type: in vivo
Method: (§3) A randomized, double-blind, placebo controlled trial was designed to evaluate the safety/tolerability, phamacokinetics and antiviral activity of single (in Part A) and multiple (in Part B) doses of Compound (1) (oleic acid solution, above) in subjects chronically infected with HCV genotype 1 (GT-1) without decompensated cirrhosis.
(§4) In ongoing Part B, four successive cohorts of 12 subjects are randomized (10:2) to receive multiple ascending doses of Compound 1 (40 mg BID, 120 mg BID, 240 mg QD, 240 mg BID) or placebo, over 8 days.

[6] = Phase-1 first-in-human trial, safety/tolerability; type: in vivo
Method: as §3, §4

[7] = Intrinsic solubility and pH solubility profile; type: physicochemical; conditions: pH 7.3
HCV replicon cells = test: In vitro combination study with IFN-α in replicon cells (MacSynergy); type: cell-based; conditions: MacSynergy analysis
Method: Pegylated interteron-α (PEG-IFN-α), in combination with ribavirin, represents the current standard of care for HCV-infected patients. In vitro combination studies of compound (1) and IFN-α were performed in replicon cells. Data was analyzed using the MacSynergy template developed by Prichard and Shipman.

HCV replicon = test: Anti-HCV replicon activity compared with prior art compound of formula (4); type: cell-based
Text: The anti-HCV replicon activity of compound (1) was compared to that of a prior art (WO 05/063744) compound, the compound of formula (4)

HCV genotype 1 = test: Phase-1 first-in-human trial, antiviral activity (HCV RNA decline); type: in vivo; conditions: following single-dose exposure
Method: as §3, §4

[8] = non-replicon-containing cell line

In the case of `C[C@@]1(O)[C@H](O)[C@@H](CO)O[C@H]1n1cnc2c(N)ncnc21` [2′CMeA, 2′C-methyl adenosine, reference compound], the CC50 (MT4 cells; [8]) is reported as 3.5 ± 1.9 µM, the CC50 (MH4 cells) is reported as 16 µM and the EC50 [1] is reported as 0.17 µM. For the same compound, the EC50 ([2]; Huh-7 cells, 3 days, absence of HSA, read-out: EC50 HCV 2a (subgenomic replicon)) was 1.61 ± 1.1 µM, the CC50 (Huh-7 lucneo cells; HCV replicon-containing cell line) was 7.2 ± 6 µM and the CC50 (SL3 cells) was 3.9 µM. For the same compound, the EC50 ([3]; 3 days, absence of HSA, read-out: EC50 HCV 1b-lucneo (subgenomic replicon)) was 0.175 ± 0.07 µM, the EC50 ([3]; read-out: EC50 HCV 1b-lucneo 40 mg/mL HSA, 3 days, presence of 40 mg/mL human serum albumin) was 0.25 µM and the CC50 (HepG2 cells; [8]) was 24.3 ± 2.1 µM. The EC50 ([4]; read-out: EC50 HCV-2a (reporter virus)) was 0.194 ± 0.026 µM.

For `Fc1ccccc1-c1nc2ccn(Cc3ccc(-c4ccc(C(F)(F)F)cc4C(F)(F)F)nn3)cc-2n1` [Compound 1, 5-({6-[2,4-bis(trifluoromethyl)phenyl]pyridazin-3-yl}methyl)-2-(2-fluorophenyl)-5H-imidazo[4,5-c]pyridine], the “cytotoxicity in MT4 cells” value (MT4 cells; human) was > 50,000 nM, the “mean concentration 24 hours after dosing relative to protein binding adjusted in vitro HCV GT-1b Replicon EC50” value ([5]; 240 mg fasted single dose) was ~7 fold and the “increase of systemic exposure when administered with a high fat meal” value ([5]; HCV GT-1 infected subjects, single dose with food versus fasted) was “approximately 2 fold”. For the same compound, the “tolerability of single doses” value ([6]; single doses 40-480 mg, HCV GT-1 infected subjects, no serious or treatment-limiting adverse events) was “well tolerated”, the “treatment emergent laboratory abnormalities” value ([6]; single doses, Part A) was “no Grade 3 or 4 treatment emergent laboratory abnormalities” and the “most common adverse event” value ([6]; single doses, Part A, all AEs mild except one moderate headache) was “headache”. For the same compound, the “pH solubility profile, geometric mean (3 lots)” value [7] was 0.7 micrograms/ml, the CC50 (MH4 cells) was > 50 µM and the “interaction between compound (1) and IFN-α” value (HCV replicon cells) was “additive interaction”. For the same compound, the EC50 ([2]; Hepatitis C virus, 72 h, Huh-7 cells, 3 days, absence of HSA, read-out: EC50 HCV 2a (subgenomic replicon)) was 21.9 ± 19 µM, the EC50 ([2]; Hepatitis C virus, Huh-7, 72 h, read-out: EC50 2a subgenomic replicon model) was 21.9 µM and the “anti-HCV replicon activity against genotype 2a” value ([2]; compared with genotypes 1a and 1b) was “substantially less active”. The “toxic effects at the highest concentration tested” value (Huh-7 lucneo cells; 50 μM, any of the cell lines Huh-7, SL3, MH4, HepG2, MT4) was “No toxic effects”, the “cytotoxicity in Huh-7 cells” value (Huh-7 lucneo cells; human, Huh-7 lucneo cells (HCV replicon-containing)) was > 50,000 nM and the CC50 (SL3 cells) was > 50 µM. For the same compound, the “times more potent than the compound of formula (4)” value (HCV replicon) was “about 330 times”, the “selectivity index (CC50/EC50)” value ([3]; CC50 in cell lines versus EC50 in HCV-1b and HCV-1a replicons) was 13,000-80,000 and the “time of maximal antiviral effect” value (HCV genotype 1) was 24 h. The “cytotoxicity in HepG2 cells” value (HepG2 cells; human) was > 50,000 nM.

In the case of IFN-α, the “EC50 HCV 1b-lucneo (subgenomic replicon)” value ([3]; 3 days, absence of HSA) is reported as 2 IU/mL and the “EC50 HCV-2a (reporter virus)” value [4] is reported as 1.2 IU/mL.
